Columns and labels:
[1] = system: muscle injury model rats (incised masseter muscles on both sides); assay: Behavioral physiological experiment (feeding efficiency), Example 2; format: in vivo, Jcl:SD rats
Method: (§1) Incisions were made in masseter muscles on both sides in Jcl:SD rats (10 weeks old) under anesthesia in the same manner as in Example 1. Immediately after muscle incision, 1 mL each of the SV peptide (20 ng/mL) or 1 mL each of PBS was intramuscularly administered into several sites surrounding the cut surfaces. The incision on each side was made along a straight line connecting the lateral angle of the eye and the mandibular angle, extending in depth from the fascia on the skin side to the lateral periosteum on the mandibular ramus. The cut surfaces were subjected to electrocoagulation with an electric scalpel for the arrest of bleeding (see FIG. 1). […]
In the same manner as in Example 1, each rat was housed in a transparent plastic cage of 30 cm in length×30 cm in width×30 cm in height at postoperative weeks 1, 2, 4, 6, and 8, and the behavior was recorded on video cameras during the active time of rats (18:00 to 22:00). Food intake and mastication time were measured, and the food intake per unit of mastication time (feeding efficiency) was calculated.

[2] = system: muscle injury model rats (incised masseter muscles on both sides); assay: Electrophysiological experiment (masseter EMG), Example 2; format: in vivo, Jcl:SD rats
Method: as §1
In the same manner as in Example 1, bipolar needle electrodes were retained in the masseter muscles on both sides, and myogenic potential signals received through connectors fixed to both sides of the parietal bone were monitored. EMG data were recorded at postoperative weeks 1, 2, 4, 6, and 8.
The integral of bursts in the left (administration side) masseter muscle in the SV group or the PBS group was calculated as a measure of muscle activity and represented in FIG. 9 as a relative value compared to the 1-week postoperative value, which was assumed as 1. […]

[3] = system: muscle injury model rats (incised masseter muscles on both sides); assay: CT image analysis at postoperative week 8; format: in vivo, Jcl:SD rats
Method: as §1
Images were taken at postoperative week 8 using a micro CT for laboratory animals (Rigaku, tube voltage: 90 kV, tube current: 160 μA, voxel size: 118 μm). […] On the image at the level of the occlusal plane including the masseter muscle incision site, the muscle cross-sectional area (CSA), the mean CT value, and the % CSA (the percentage of the area having a muscle CT value in the area of interest) were measured and compared.

[4] = system: muscle injury model rats (incised masseter muscles on both sides); assay: Histological staining of masseter muscles at postoperative week 8, Example 2; format: in vivo, Jcl:SD rats; settings: sirius red staining
Method: as §1
Each rat was euthanized at postoperative week 8, and the masseter muscles on both sides were excised. […] Histological characteristics of regenerated muscle fibers at the muscle injury site were assessed on the HE-stained sections. The amount of muscle fibers formed and the diameter of the muscle fibers in the tissue were measured on the sirius red-staining sections.

[5] = system: Human skeletal muscle satellite cells (HskMSCs); assay: Cell proliferative capacity (WST-1 assay); format: cell-based; settings: SV peptide 20 ng/mL; 0-72 hours
Description: (§2) Human skeletal muscle satellite cells (HskMSCs) were purchased from ScienCell Research Laboratories and used. The medium used for HskMSC culture was the supplier's recommended medium (Skeletal Muscle Cell Medium containing 5% FBS, Skeletal Muscle Cell Growth Supplement, and penicillin/streptomycin solution).
Human skeletal muscle satellite cells and human skeletal muscle myoblasts were separately seeded at 1.0×10^4 cells/mL in each well of non-treated polystyrene 96-well cell culture plates (Falcon). The SV peptide (20 ng/mL, SV group), the random SV (20 ng/mL, random SV group), or PBS (PBS group) was added to the medium. The plates were cultured at 37° C. in a 5% CO2 atmosphere. After 0, 12, 24, 48, and 72 hours, cell proliferation was assessed using Premix WST-1 Cell Proliferation Assay System (Takara Bio, Japan).

[6] = system: Human skeletal muscle satellite cells (HskMSCs); assay: Chemotactic capacity (Chemotaxicell membrane); format: cell-based; settings: SV peptide 20 ng/mL as chemoattractant; 12 hours; vs PBS or random SV
Method: as §2
A polycarbonate membrane with a pore size of 8 μm (Chemotaxicell: Kurabo Industries LTD.) was immersed in a 10 μg/mL fibronectin solution at room temperature for 30 minutes for coating the membrane. A medium containing the SV peptide (20 ng/mL, SV group), the random SV (20 ng/mL, random SV group), or PBS (PBS group) as a chemoattractant was added to a lower chamber. On an upper chamber, human skeletal muscle satellite cells and human skeletal muscle myoblasts were separately seeded at 2.0×10^4 cells/mL in DMEM containing 0.1% BSA. A pair of chambers was incubated at 37° C. for 12 hours. The cells on the upper surface of the membrane were removed with a swab, and the membrane was fixed with a 10% neutral buffered formalin solution (Wako Pure Chemical Industries, Ltd.) and stained with hematoxylin. The number of cells migrated to the lower surface of the membrane was measured under an optical microscope.

angiogenesis = settings: Patent Literature 1, Non Patent Literature 1 and 2; compared with VEGF; cited from earlier work
[7] = Patent Literature 3; cited from earlier work
fibroblasts = settings: Patent Literature 4; cited from earlier work

For SVVYGLR [SV peptide], the “feeding efficiency (food intake per unit of mastication time)” value ([1]; postoperative week 8, SV group vs PBS group) was “significantly higher value than that in the PBS group”, the “feeding efficiency (food intake per unit of mastication time)” value ([1]; time course postoperative weeks 1, 2, 4, 6, 8, relative to week 1 value = 1) was “time-dependent improvement in feeding efficiency” and the chewing side preference ([2]; postoperative weeks 1 and 8, SV peptide into left masseter, right incision only) was “increase in left-side chewing preference over time postoperatively”. For the same substance, the “integral of bursts in the left (administration side) masseter muscle” value ([2]; weeks 4, 6, and 8, relative to 1-week postoperative value = 1, SV group vs PBS group) was “significantly greater values than those in the PBS group”, the “muscle cross-sectional area (CSA)” value ([3]; CT image at occlusal plane level, SV group vs PBS group) was “significantly greater CSA in the area including the muscle incision site than that in the corresponding area in the PBS group” and the “% CSA (percentage of the area having a muscle CT value in the area of interest)” value ([3]; SV side vs control side within SV group) was “significantly higher % CSA on the left side with SV administration (SV side) than that on the right side without administration (control side)”. The “amount of scar formation (area of scar tissue formed on the cut surfaces)” value ([4]; SV peptide administration side vs PBS administration side) was “remarkably reduced from that on the PBS administration side in the PBS group”, the “diameter of the muscle fibers” value ([4]; SV side vs control side in SV group) was “significantly larger than that on the control side in the same group” and the cell proliferative capacity [5] was “not enhanced”. The “chemotactic capacity (number of cells migrated to lower surface of membrane)” value [6] was “tended to have a higher chemotactic capacity than that of the counterpart in the PBS group or the random SV group, but there was no significant intergroup difference”, the angiogenic activity (angiogenesis) was “high angiogenic activity that is comparable to that of VEGF” and the cardiac function [7] was “improves cardiac function”. The “type III collagen production in fibroblasts” value (fibroblasts) was “promotes type III collagen production in fibroblasts”.

Reference: US11077167B2, “Agent for promoting skeletal muscle injury repair” (Osaka University, priority 2017, dated 2021)
